# Assays:
# BMPR2 = assay: Relative BMPR2 mRNA expression in PAECs (qPCR); type: cell-based, human; conditions: PAEC, 24 hours, low doses (5-15 uM), FIG. 14
# Procedure: Human PAEC (Promocell) or human PASMC (Promocell) were grown as monolayers in gelatin-coated dishes in a commercial EC (Promocell) or SMC (Promocell) media, respectively. Cells were passaged at 1:3 ratios and used for experiments from passages 3-8. Transformed lymphocytes (i.e., lymphoblasts) were cultured in RPMI 1640 with 10-15% FBS.
# FHIT expression was modulated by RNAi in PA endothelial cells (PAEC). A pool of 4 siRNAs for BMPR2, FHIT, LCK or a non-targeting control pool (Dharmacon) were transfected into PAECs using the RNAi Max kit (Invitrogen) for 48 hours. mRNA knockdown efficiency was determined by qPCR.
# For mRNA, total RNA was extracted from whole lung tissue using the RNAeasy Plus Kit (Qiagen) and reverse transcribed into cDNA using random primers with the Taqman cDNA reverse transcription Kit (Applied Biosciences) according to the manufacturer's instructions. For miR, total miR was isolated from whole lung tissue using the Taqman miRNA ABC purification Kit (Applied Biosciences) and was reverse transcribed using specific primers and the Taqman microRNA reverse transcription kit (Applied Biosciences). mRNA and miR expression levels were quantified using Taqman primer/probe sets for the target and normalized to a housekeeping control (mRNA: GAPDH; miR: RNU48). […]
# [1] = system: FHIT−/− C57BL/6 mice in hypoxia; assay: Hypoxia-induced PH in Fhit−/− mice; type: in vivo, mouse
# Procedure: Experimental PAH will be assessed based on Right Ventricular (RV) Systolic Pressure measurements through right jugular vein catheterization and RV hypertrophy was assessed by the weight ratio of the RV to left ventricle+septum. Vessel loss and muscularization of lung vessels will be visualized by MOVAT pentachrome stain or IF staining with αSMA and avWF antibodies.
# Fhit homozygous (−/−) mice were obtained from Kay F. Huebner (Ohio State University). Bmpr2+/− mice were a gift from Marlene Rabinovitch (Stanford University). Adult wildtype C57BL/6 mice, Bmpr2+/− or Fhit−/− mice at 8-10 weeks of age were housed in chronic hypoxia (10% O2) for 3 weeks, followed by a recovery period of 4 weeks in normoxia (21% O2). […] Development of experimental PH was induced in adult Sprague Dawley rats (8 weeks old, 180-220 g) through a subcutaneous dose of the VEGFR-2 inhibitor SUGEN5416 (20 mg/kg body weight), followed by exposure to chronic hypoxia (10% O2) for 3 weeks and normoxia for 5 weeks (21% O2), as previously described(12). […] Right Ventricular (RV) Systolic Pressure was measured through right jugular vein catheterization, and RV hypertrophy (RVH) was assessed by the weight ratio of the RV to left ventricle and septum (LV+S).
# FIGS. 23B-23C, ΔΔCt analysis of mRNA expression in lung tissue.
# [2] = C57BL/6 FHIT−/− mice, 3 weeks hypoxia, 5 mg/kg daily by osmotic pump, method in future tense
# [3] = Fhit−/− mice, hypoxia, 5 mg/kg/day via mini osmotic pump
smiles,measurement,setting,value
"Cn1cc(C2=C(c3cn(C4CCN(Cc5ccccn5)CC4)c4ccccc34)C(=O)NC2=O)c2ccccc21 [Enzastaurin, 3-(1-methyl-1H-indol-3-yl)-4-[1-[1-(pyridin-2-ylmethyl)piperidin-4-yl]-1H-indol-3-yl]-1H-pyrrole-2,5-dione]",BMPR2 expression at low doses in vitro,BMPR2,increased
same,FHIT levels (FIG. 5C),[1]; [2],fails to increase FHIT levels
same,PKC levels (FIG. 5C),[1]; [2],effectively downregulating PKC levels
same,Pulmonary hypertension development (FIG. 5C),[1]; [2],does not protect from pulmonary hypertension development
same,BMPR2 expression in whole lung tissue,[1]; [3],increased
same,FHIT mRNA expression in lung tissue,[1]; [3],unmeasurably low
same,ID1 expression in whole lung tissue,[1]; [3],increased
same,PH,[1]; [3],improved PH
same,RVSP,"[1]; male FHIT−/− mice, 3 weeks hypoxia, 5 mg/kg by mini-osmotic pump, vs Sham control",protects from increased RVSP
